Results on 43 compounds are retold here after US20250221966A1, “RXFP1 AGONISTS” (BRISTOL-MYERS SQUIBB COMPANY, priority 2021, published 2025).

pEC50: −log10 of the molar value.

The target in the assay is T1, human RXFP1 (Homo sapiens, UniProt Q9HBX9).
T1 construct: expressed in transfected cells
T1 sequence (Q9HBX9 1-757): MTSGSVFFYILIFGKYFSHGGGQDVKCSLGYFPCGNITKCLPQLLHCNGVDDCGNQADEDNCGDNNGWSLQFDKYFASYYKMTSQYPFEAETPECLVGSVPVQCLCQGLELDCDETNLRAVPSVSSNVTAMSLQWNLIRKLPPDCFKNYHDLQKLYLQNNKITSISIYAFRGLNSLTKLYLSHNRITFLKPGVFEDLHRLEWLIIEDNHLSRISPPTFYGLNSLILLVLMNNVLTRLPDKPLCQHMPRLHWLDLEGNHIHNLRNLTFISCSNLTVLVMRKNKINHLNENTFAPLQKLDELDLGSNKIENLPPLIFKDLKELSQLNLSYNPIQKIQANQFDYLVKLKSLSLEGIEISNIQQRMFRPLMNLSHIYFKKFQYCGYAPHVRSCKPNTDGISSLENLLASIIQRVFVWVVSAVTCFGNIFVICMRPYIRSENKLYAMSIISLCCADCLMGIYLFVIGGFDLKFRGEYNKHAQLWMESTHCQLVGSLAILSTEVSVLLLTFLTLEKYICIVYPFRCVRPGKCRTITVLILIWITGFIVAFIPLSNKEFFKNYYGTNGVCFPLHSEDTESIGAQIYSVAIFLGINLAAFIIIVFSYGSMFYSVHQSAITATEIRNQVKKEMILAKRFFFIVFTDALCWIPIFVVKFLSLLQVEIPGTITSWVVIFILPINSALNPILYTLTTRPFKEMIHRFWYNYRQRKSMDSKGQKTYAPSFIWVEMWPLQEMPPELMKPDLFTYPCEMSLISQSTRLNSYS
The experiment in a line: RXFP1 cAMP assay (hRXFP1 HEK293 cAMP assay, HTRF). It is filed as cell-based. The conditions noted are these: HEK293 cells stably expressing human RXFP1, 30 min at room temperature, read-out: cAMP hRXFP1 HEK293 Assay EC50. A digest of the protocol:
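hRXFP1-HEK293 stable line; HBSS + Ca/Mg, 20 mM HEPES, 0.05% BSA, 0.5 mM IBMX; cpd 0.010 nM–50 μM, 2% DMSO; 30 min RT; lysis, HTRF cAMP detection; 4-PL fit.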
For orientation: Changes in cAMP serve as a functional read-out for many G protein-coupled receptors.
For orientation: pEC50 means the negative decadic logarithm of the EC50, by convention in mol/L. For `COc1ccc(C2=NOC(C(=O)O)C2)cc1C(=O)N[C@@H]1C2CCC(/C2=C/C2CCC2)[C@@H]1C(=O)Nc1ccc(F)c(C(F)(F)F)c1` (stereo partly shown) [compound 388], the pEC50 was 6.82. To `COc1ccc(C2=NOC(C(=O)O)C2)cc1C(=O)N[C@@H]1C2CCC(/C2=C/C(F)(F)F)[C@@H]1C(=O)Nc1ccc(F)c(C(F)(F)F)c1` (stereo partly shown) [compound 389] belongs 7.27. In the case of `COc1ccc(C2=NOC(CC(=O)O)C2)cc1C(=O)N[C@@H]1C2CCC(/C2=C/C2CC2)[C@@H]1C(=O)Nc1ccc(F)c(C(F)(F)F)c1` (stereo partly shown) [compound 391] it was 7.31. In the case of `COc1ccc(C2=NOC(CC(=O)O)C2)cc1C(=O)N[C@@H]1C2CCC(/C2=C/C2CC2)[C@@H]1C(=O)Nc1ccc(F)c(C(F)(F)F)c1` (stereo partly shown) [compound 392] it was 7.30; in that of `COc1ccc(C2=NOC(CC(=O)O)C2)cc1C(=O)N[C@@H]1C2CCC(/C2=C/C2CCC2)[C@@H]1C(=O)Nc1ccc(F)c(C(F)(F)F)c1` (stereo partly shown) [compound 393], 7.14. `COc1ccc(C2=NOC(CC(=O)O)C2)cc1C(=O)N[C@@H]1C2CCC(/C2=C/C2CCC2)[C@@H]1C(=O)Nc1ccc(F)c(C(F)(F)F)c1` (stereo partly shown) [compound 394]: the pEC50 was 7.31. In the case of `CCCC/C=C1\C2CCC1[C@H](C(=O)Nc1ccc(F)c(C(F)(F)F)c1)[C@@H]2NC(=O)c1cc(C2=NOC(CC(=O)O)C2)ccc1OC` (stereo partly shown) [compound 395] it was 6.98; in that of `COc1ccc(C2=NOC(CC(=O)O)C2)cc1C(=O)N[C@@H]1C2CCC(/C2=C/C(F)(F)F)[C@@H]1C(=O)Nc1ccc(F)c(C(F)(F)F)c1` (stereo partly shown) [compound 396], 6.49; in that of `COc1ccc(C2=NOC(CCO)C2)cc1C(=O)N[C@@H]1C2CCC(/C2=C/C2CC2)[C@@H]1C(=O)Nc1ccc(F)c(C(F)(F)F)c1` (stereo partly shown) [compound 398], 7.43. To `COc1ccc(C2=NOC(CCO)C2)cc1C(=O)N[C@@H]1C2CCC(/C2=C/C2CC2)[C@@H]1C(=O)Nc1ccc(F)c(C(F)(F)F)c1` (stereo partly shown) [compound 399] belongs 7.38. In the case of `COc1ccc(C2=NOC(CCO)C2)cc1C(=O)N[C@@H]1C2CCC(/C2=C/C2CCC2)[C@@H]1C(=O)Nc1ccc(F)c(C(F)(F)F)c1` (stereo partly shown) [compound 400] it was 7.51; in that of `COc1ccc(C2=NOC3(CCOCC3)C2)cc1C(=O)N[C@@H]1C2CCC(/C2=C/C2CC2)[C@@H]1C(=O)Nc1ccc(F)c(C(F)(F)F)c1` (stereo partly shown) [compound 402], 7.15. On to `COc1ccc(C2=NOC(CNC(=O)OC(C)(C)C)C2)cc1C(=O)N[C@@H]1C2CCC(/C2=C/C(F)(F)F)[C@@H]1C(=O)Nc1ccc(F)c(C(F)(F)F)c1` (stereo partly shown) [compound 403], for which the pEC50 was 5.86. In the case of `COc1ccc(C2=NOC(C(N)=O)C2)cc1C(=O)N[C@@H]1C2CCC(/C2=C/C2CC2)[C@@H]1C(=O)Nc1ccc(F)c(C(F)(F)F)c1` (stereo partly shown) [compound 404] it was 7.35; in that of `COc1ccc(C2=NOC3C[C@H](O)CC23)cc1C(=O)N[C@@H]1C2CCC(/C2=C/C2CC2)[C@@H]1C(=O)Nc1ccc(F)c(C(F)(F)F)c1` (stereo partly shown) [compound 407], 7.68; in that of `COc1ccc(C2=NOC3COCC23)cc1C(=O)N[C@@H]1C2CCC(/C2=C/C2CC2)[C@@H]1C(=O)Nc1ccc(F)c(C(F)(F)F)c1` (stereo partly shown) [compound 418], 6.77. For `COc1cc(F)c(C2=NOC3COCC23)cc1C(=O)N[C@@H]1C2CCC(/C2=C/C2CC2)[C@@H]1C(=O)Nc1ccc(F)c(C(F)(F)F)c1` (stereo partly shown) [compound 420], the pEC50 was 9.00. With `COc1ccc(C2=NOC(C)(C(=O)O)C2)cc1C(=O)N[C@@H]1C2CCC(/C2=C/C2CC2)[C@@H]1C(=O)Nc1ccc(F)c(C(F)(F)F)c1` (stereo partly shown) [compound 421], the pEC50 is 6.08. Take `COc1ccc(C2=NOC(C)(C(=O)O)C2)cc1C(=O)N[C@@H]1C2CCC(/C2=C/C2CC2)[C@@H]1C(=O)Nc1ccc(F)c(C(F)(F)F)c1` (stereo partly shown) [compound 422]: the pEC50 was 7.26. `COc1ccc(-c2cc(C(C)O)on2)cc1C(=O)N[C@@H]1C2CCC(/C2=C/C2CC2)[C@@H]1C(=O)Nc1ccc(F)c(C(F)(F)F)c1` (stereo partly shown) [compound 424]: the pEC50 is 7.96. In the case of `COc1ccc(-c2cc(C(C)(C)O)on2)cc1C(=O)N[C@@H]1C2CCC(/C2=C/C2CC2)[C@@H]1C(=O)Nc1ccc(F)c(C(F)(F)F)c1` (stereo partly shown) [compound 425] it was 7.72; in that of `COc1ccc(-c2cc(C(N)=O)on2)cc1C(=O)N[C@@H]1C2CCC(/C2=C/C2CC2)[C@@H]1C(=O)Nc1ccc(F)c(C(F)(F)F)c1` (stereo partly shown) [compound 426], 7.35.

For the compound `COc1ccc(C2=NOC3CN(C(=O)OC(C)(C)C)CC23)cc1C(=O)N[C@@H]1C2CCC(/C2=C/C2CC2)[C@@H]1C(=O)Nc1ccc(F)c(C(F)(F)F)c1` (stereo partly shown) [compound 435], the pEC50 was 7.31. Take `COc1ccc(C2=NOC3CN(C(=O)OC(C)(C)C)CC23)cc1C(=O)N[C@@H]1C2CCC(/C2=C/C2CC2)[C@@H]1C(=O)Nc1ccc(F)c(C(F)(F)F)c1` (stereo partly shown) [compound 436]: the pEC50 is 8.40. To `COc1ccc(C2=NOC3CCCC23)cc1C(=O)N[C@@H]1C2CCC(/C2=C/C2CC2)[C@@H]1C(=O)Nc1ccc(F)c(C(F)(F)F)c1` (stereo partly shown) [compound 440] belongs 7.60. Take `COc1ccc(C2=NOC3CC(CO)CC23)cc1C(=O)N[C@H]1[C@@H](C(=O)Nc2ccc(F)c(C(F)(F)F)c2)[C@H]2CC[C@@H]1/C2=C\C1CCCC1` (stereo partly shown) [compound 445]: the pEC50 was 9.30. Turning to `COc1ccc(C2=NOC3CC(CO)CC23)cc1C(=O)N[C@H]1[C@@H](C(=O)Nc2ccc(F)c(C(F)(F)F)c2)[C@H]2CC[C@@H]1/C2=C\C1CCC1` (stereo partly shown) [compound 446], the pEC50 was 9.22. In the case of `COc1ccc(C2=NOC3CC(CO)CC23)cc1C(=O)N[C@H]1[C@@H](C(=O)Nc2ccc(F)c(C(F)(F)F)c2)[C@H]2CC[C@@H]1/C2=C\C(C)C` (stereo partly shown) [compound 450] it was 8.80; in that of `COc1ccc(C2=NOC3CC(CO)CC23)cc1C(=O)N[C@H]1[C@@H](C(=O)Nc2ccc(F)c(C(F)(F)F)c2)[C@H]2CC[C@@H]1/C2=C\C(C)C` (stereo partly shown) [compound 454], 8.72; in that of `COc1ccc(C2=NOC3CC(CO)CC23)cc1C(=O)N[C@H]1[C@@H](C(=O)Nc2ccc(F)c(C(F)(F)F)c2)[C@H]2CC[C@@H]1/C2=C\C1CCCC1` (stereo partly shown) [compound 457], 8.68.

Turning to `CN(C)c1ccc(C2=NOC3COCC23)cc1C(=O)N[C@H]1[C@@H](C(=O)Nc2ccc(F)c(C(F)(F)F)c2)[C@H]2CC[C@@H]1/C2=C\C1CC1` (stereo partly shown) [compound 460], the pEC50 is 8.60. With `COc1ccc(-c2cc([C@H](C)O)on2)cc1C(=O)N[C@H]1[C@@H](C(=O)Nc2ccc(F)c(C(F)(F)F)c2)[C@H]2CC[C@@H]1/C2=C\C1CC1` [compound 465], the pEC50 was 8.46. In the case of `COc1ccc(C2=NOC3CC(CO)CC23)cc1C(=O)N[C@H]1[C@@H](C(=O)NC2(C)CCCC2)[C@H]2CC[C@@H]1/C2=C\C1CC1` (stereo partly shown) [compound 466] it was 8.41. As to `COc1ccc(C2=NOC3COCC23)cc1C(=O)N[C@H]1[C@@H](C(=O)NC2(C#N)CCCC2)[C@H]2CC[C@@H]1/C2=C\C1CC1` (stereo partly shown) [compound 476], the pEC50 was 8.21. In the case of `COc1ccc(C2=NOC3COCC23)cc1C(=O)N[C@H]1[C@@H](C(=O)NCC2(C)CCC2)[C@H]2CC[C@@H]1/C2=C\C1CC1` (stereo partly shown) [compound 477] it was 8.19; in that of `COc1ccc(C2=NOC3CC(CO)CC23)cc1C(=O)N[C@H]1[C@@H](C(=O)Nc2ccc(F)c(C(F)(F)F)c2)[C@H]2CC[C@@H]1/C2=C\C(F)(F)F` (stereo partly shown) [compound 478], 8.19; in that of `COc1ccc(C2=NOC3COCC23)cc1C(=O)N[C@H]1[C@@H](C(=O)N[C@H](C)C(C)(C)C)[C@H]2CC[C@@H]1/C2=C\C1CC1` (stereo partly shown) [compound 485], 8.11.

As for `COc1ccc(C2=NOC3CC(CO)CC23)cc1C(=O)N[C@H]1[C@@H](C(=O)NC2CCCC2)[C@H]2CC[C@@H]1/C2=C\C1CC1` (stereo partly shown) [compound 493], the pEC50 was 8.02. In the case of `COc1ccc(C2=NOC3COCC23)cc1C(=O)N[C@H]1[C@@H](C(=O)NC2(C)CCCC2)[C@H]2CC[C@@H]1/C2=C\C1CC1` (stereo partly shown) [compound 494], the pEC50 is 7.98. To `COc1ccc(-c2cc([C@@H](C)O)on2)cc1C(=O)N[C@H]1[C@@H](C(=O)Nc2ccc(F)c(C(F)(F)F)c2)[C@H]2CC[C@@H]1/C2=C\C1CC1` [compound 500] belongs 7.96. In the case of `COc1ccc(C2=NOC(CCO)C2CCO)cc1C(=O)N[C@H]1[C@@H](C(=O)Nc2ccc(F)c(C(F)(F)F)c2)[C@H]2CC[C@@H]1/C2=C\C1CC1` (stereo partly shown) [compound 501] it was 7.94.

On to `CCC(C)(C)NC(=O)[C@@H]1[C@H](NC(=O)c2cc(C3=NOC4COCC34)ccc2OC)[C@@H]2CC[C@H]1/C2=C/C1CC1` (stereo partly shown) [compound 502], for which the pEC50 is 7.92.

With `COc1ccc(C2=NOC3CC(C#N)CC23)cc1C(=O)N[C@H]1[C@@H](C(=O)Nc2ccc(F)c(C(F)(F)F)c2)[C@H]2CC[C@@H]1/C2=C\C1CC1` (stereo partly shown) [compound 506], the pEC50 was 7.90.
